Reference: ChEMBL document CHEMBL1201862, “PubChem BioAssay data set” (2004)
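A five-concentration, 48-hour dose response in 96-well plates underlies each endpoint, interpolated linearly between surrounding concentrations. Abbreviation: GI50, concentration required for 50% inhibition of growth.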 Active and inactive are the calls of the source. Cut-off read from the data, not from the text of the source: active = GI50 up to about 1.1 µM and inactive = higher.

Legend:
Assay in all cases: NCI tumour cell line growth inhibition, 48 h
NCI-H226 = system: NCI-H226
SN12C = system: SN12C
T47D = system: T47D
786-0 = system: 786-0
SF-268 = system: SF-268
OVCAR-5 = system: OVCAR-5
K562 = system: K562
Hs-578T = system: Hs-578T
CCRF-CEM = system: CCRF-CEM
BT-549 = system: BT-549
IGROV-1 = system: IGROV-1
RXF 393 = system: RXF 393
U-251 = system: U-251
NCI-H460 = system: NCI-H460
DU-145 = system: DU-145
OVCAR-3 = system: OVCAR-3
TK-10 = system: TK-10
CAKI-1 = system: CAKI-1
A549 = system: A549

Measured: GI50

COc1cc(C[C@H]2C(=O)OC[C@@H]2Cc2ccc(OC)c(OC)c2)cc(OC)c1
inactive: NCI-H226 > 100 µM | SN12C > 100 µM | T47D 35.2 µM | 786-0 > 100 µM | SF-268 > 100 µM | OVCAR-5 > 100 µM | K562 31.5 µM | Hs-578T > 100 µM | CCRF-CEM 25.8 µM | BT-549 16.8 µM | IGROV-1 > 100 µM | RXF 393 > 100 µM | U-251 70.8 µM | NCI-H460 > 100 µM | DU-145 > 100 µM | OVCAR-3 59.3 µM | TK-10 > 100 µM | CAKI-1 > 100 µM | A549 74.8 µM

Cc1c(S(=O)(=O)/N=C(\NN)Nc2ccc(Cl)cc2)sc2ccc(Cl)cc12
inactive: NCI-H226 20 µM | SN12C 16.7 µM | T47D 10.2 µM | 786-0 17.5 µM | SF-268 18.8 µM | OVCAR-5 14.4 µM | K562 24 µM | Hs-578T 36.6 µM | CCRF-CEM 16.3 µM | BT-549 16.7 µM | IGROV-1 15.2 µM | RXF 393 11.1 µM | U-251 16.3 µM | NCI-H460 16.6 µM | DU-145 16.9 µM | OVCAR-3 16.6 µM | TK-10 17 µM | CAKI-1 19 µM | A549 16.9 µM

O=C(O)c1cc(/N=N/c2ccc([N+](=O)[O-])cc2)ccc1O
inactive: NCI-H226 17 µM | SN12C 30.8 µM | T47D 42.6 µM | 786-0 34.3 µM | SF-268 35.6 µM | OVCAR-5 30.3 µM | K562 29.6 µM | Hs-578T 37.6 µM | CCRF-CEM 28.4 µM | BT-549 42.4 µM | IGROV-1 40.2 µM | RXF 393 42.3 µM | U-251 21.6 µM | NCI-H460 28.2 µM | DU-145 38.3 µM | OVCAR-3 15.6 µM | TK-10 25.6 µM | CAKI-1 29.2 µM | A549 32.6 µM

CCCNC(=O)Cn1c(C)cc2ccccc21
inactive: NCI-H226 > 100 µM | SN12C > 100 µM | T47D > 100 µM | 786-0 > 100 µM | SF-268 > 100 µM | OVCAR-5 > 100 µM | K562 > 100 µM | Hs-578T > 100 µM | CCRF-CEM > 100 µM | BT-549 > 100 µM | IGROV-1 > 100 µM | RXF 393 > 100 µM | U-251 > 100 µM | NCI-H460 > 10 µM | DU-145 > 100 µM | OVCAR-3 > 100 µM | TK-10 > 100 µM | CAKI-1 > 100 µM | A549 > 100 µM

N#CC12C(=O)N3C(=NC(c4ccccc4)NC3c3ccccc3)C1(C#N)C(c1ccccc1)NC1=C2CCC1 (centres undefined)
inactive: NCI-H226 > 100 µM | SN12C > 100 µM | T47D > 100 µM | 786-0 > 100 µM | SF-268 > 100 µM | OVCAR-5 > 100 µM | K562 63.5 µM | Hs-578T > 100 µM | CCRF-CEM > 100 µM | BT-549 > 100 µM | IGROV-1 > 100 µM | RXF 393 > 100 µM | U-251 > 100 µM | NCI-H460 > 100 µM | DU-145 > 100 µM | OVCAR-3 > 100 µM | TK-10 > 100 µM | CAKI-1 > 100 µM | A549 > 100 µM

Cn1cncc1CC1COC(=O)C1C(O)c1ccccc1 (centres undefined)
inactive: NCI-H226 > 100 µM | SN12C > 100 µM | T47D > 100 µM | 786-0 > 100 µM | SF-268 > 100 µM | OVCAR-5 > 100 µM | K562 > 100 µM | Hs-578T > 100 µM | CCRF-CEM > 100 µM | BT-549 > 100 µM | IGROV-1 > 100 µM | RXF 393 > 100 µM | U-251 > 100 µM | NCI-H460 > 100 µM | DU-145 > 100 µM | OVCAR-3 > 100 µM | TK-10 > 100 µM | CAKI-1 > 100 µM | A549 > 100 µM
